Measurements from patent publication US20260053811A1, “METHODS OF TREATING HYPERTENSION IN OBESE SUBJECTS” (Mineralys Therapeutics, Inc., priority 2022, published 2026).
Marks after values point to notes of the source that are not given here.

System: hypertensive subjects
Assay: Seated automated office blood pressure (AOBP) in randomized, placebo-controlled, dose-ranging study
Type: in vivo, human
Set-up: Difference from placebo in change in blood pressure: unit not given here
Procedure: A randomized, double-blinded, placebo-controlled, dose-ranging, multicenter study was conducted to evaluate the effect of orally administered Compound A HBr on blood pressure for the treatment of hypertension in male and female subjects ≥18 years of age.
The study consists of two parts. For enrollment into Part 1 of the study, a subject's value of plasma renin activity (PRA) must be ≤1 ng/mL/h based on morning measurement. If the value of PRA >1 ng/mL/h based on morning measurement, then subjects may be eligible to enter Part 2 of the study.
For Part 1, 163 enrolled subjects ≥18 years of age were randomized into 6 equal treatment groups (1:1:1:1:1:1) to 12.5 mg BID, 25 mg BID, 12.5 mg QD, 50 mg QD, 100 mg QD, or placebo. After a review of interim clinical data, the 2 lowest dose levels (12.5 mg QD and 12.5 mg BID) were stopped for future randomization due to a lack of consistent meaningful reduction of blood pressure, but the patients randomized to that point remained in the study through completion. Thus, after the review of interim clinical data, subjects were randomized into 4 equal treatment groups (1:1:1:1) to 25 mg BID, 50 mg QD, 100 mg QD, or placebo.
For Part 2, 36 enrolled subjects ≥18 years of age were randomized (5:1) to either 100 mg QD Compound A HBr or placebo such that the Compound A HBr treatment group consisted of approximately 30 subjects and the placebo treatment group will consist of approximately 6 subjects.
Subjects orally administered the assigned study drug (Compound A HBr or placebo) according to the assigned dosing regimen for 8 weeks beginning on Study Day 1. All subjects in Part 1 (regardless of dosing group) received BID dosing to preserve the integrity of the blind; active drug is administered as the morning dose for all QD dose groups. Subjects returned to the research facility or were seen by the clinical investigator or approved home health care professional at the end of Study Weeks 1, 2, 3, 4, 5, 6, 7, and 8 (±2 days) for protocol-defined efficacy and safety assessments and procedures, assessment of adverse events (AEs), and confirmation of compliance with study drug usage. Subjects also completed a telephone visit and blood pressure (BP) check at home approximately 3 days post last dose of study drug. Subjects attended up to 14 full clinic visits, including a pre-Screening visit, a Screening/start of Placebo Run-in visit, a second visit during Placebo Run-in, a clinic visit to initiate the ABPM procedure, a Randomization visit, 8 weekly visits during double-blind treatment, and an end-of-study visit scheduled 4 weeks after the last study treatment for final efficacy and safety assessments.
An automated oscillometric sphygmomanometer device was used to measure the subjects' systolic and diastolic blood pressure in office after approximately 5 minutes of rest in the seated position.
The primary endpoint is the change in office-measured (mean of last 2 of 5 unattended measurements using an automated oscillometric sphygmomanometer device after approximately 5 minutes of rest in the seated position) systolic blood pressure (SBP) from baseline to the end of Study Week 8.
Secondary endpoints of this study were: • (a) Change in 24-hour ambulatory blood pressure monitoring (ABPM) parameters (systolic and diastolic) from baseline to the end of Study Week 7. • (b) Change in office-measured SBP from baseline to the end of Study Weeks 1, 2, 3, 4, 5, 6, and 7. • (c) Change in office-measured diastolic blood pressure (DBP) from baseline to the end of Study Weeks 1, 2, 3, 4, 5, 6, 7, and 8. • (d) Proportion of subjects who achieve office-measured BP of ≤130/80 mm Hg by the end of Study Week 8.

CC(=O)N[C@H]1CC[C@H](NC(=O)CN2CCN(c3nncc(-c4ccc(C)cc4)n3)CC2)CC1 [Compound A HBr]
Difference from placebo in change in blood pressure (25 mg BID, Thiazide Yes): −8.3 | Seated AOBP DBP change from baseline (CFB), Mean (SD) (25 mg BID, Week 1, Part 1, FAS): −2.22 (5.68) mmHg | Seated AOBP DBP, Mean (SD) (25 mg BID, Week 1, Part 1, FAS): 76.70 (9.28) mmHg | Seated AOBP SBP change from baseline (CFB), Mean (SD) (25 mg BID, Week 1, Part 1, FAS): −6.57 (10.78) mmHg | Seated AOBP SBP, Mean (SD) (25 mg BID, Week 1, Part 1, FAS): 134.37 (14.17) mmHg | Seated AOBP DBP change from baseline (CFB), Mean (SD) (25 mg BID, Week 2, Part 1, FAS): −2.42 (8.03) mmHg | Seated AOBP DBP, Mean (SD) (25 mg BID, Week 2, Part 1, FAS): 76.50 (10.74) mmHg | Seated AOBP SBP change from baseline (CFB), Mean (SD) (25 mg BID, Week 2, Part 1, FAS): −6.37 (13.43) mmHg | Seated AOBP SBP, Mean (SD) (25 mg BID, Week 2, Part 1, FAS): 134.57 (17.75) mmHg | Seated AOBP DBP change from baseline (CFB), Mean (SD) (25 mg BID, Week 3, Part 1, FAS): −0.55 (14.99) mmHg | Seated AOBP DBP, Mean (SD) (25 mg BID, Week 3, Part 1, FAS): 78.72 (15.35) mmHg | Seated AOBP SBP change from baseline (CFB), Mean (SD) (25 mg BID, Week 3, Part 1, FAS): −5.34 (18.35) mmHg | Seated AOBP SBP, Mean (SD) (25 mg BID, Week 3, Part 1, FAS): 136.34 (19.78) mmHg | LSM Δ with Placebo, seated AOBP DBP (MMRM) (25 mg BID, Week 4, Part 1, FAS): −5.94 mmHg | Modelled (MMRM) LSM (SEM) change from baseline, seated AOBP DBP (25 mg BID, Week 4, Part 1, FAS): −6.47 (1.41) mmHg | Seated AOBP DBP change from baseline (CFB), Mean (SD) (25 mg BID, Week 4, Part 1, FAS): −5.80 (7.01) mmHg | Seated AOBP DBP, Mean (SD) (25 mg BID, Week 4, Part 1, FAS): 73.26 (7.79) mmHg | Seated AOBP SBP change from baseline (CFB), Mean (SD) (25 mg BID, Week 4, Part 1, FAS): −9.63 (12.34) mmHg | Seated AOBP SBP, Mean (SD) (25 mg BID, Week 4, Part 1, FAS): 131.85 (13.59) mmHg | Seated AOBP DBP change from baseline (CFB), Mean (SD) (25 mg BID, Week 5, Part 1, FAS): −2.82 (8.82) mmHg | Seated AOBP DBP, Mean (SD) (25 mg BID, Week 5, Part 1, FAS): 76.29 (9.91) mmHg | Seated AOBP SBP change from baseline (CFB), Mean (SD) (25 mg BID, Week 5, Part 1, FAS): −9.16 (15.72) mmHg | Seated AOBP SBP, Mean (SD) (25 mg BID, Week 5, Part 1, FAS): 132.25 (16.30) mmHg | Seated AOBP DBP change from baseline (CFB), Mean (SD) (25 mg BID, Week 6, Part 1, FAS): −3.07 (8.82) mmHg | Seated AOBP DBP, Mean (SD) (25 mg BID, Week 6, Part 1, FAS): 76.04 (10.57) mmHg | Seated AOBP SBP change from baseline (CFB), Mean (SD) (25 mg BID, Week 6, Part 1, FAS): −7.09 (11.66) mmHg | Seated AOBP SBP, Mean (SD) (25 mg BID, Week 6, Part 1, FAS): 134.32 (13.96) mmHg | Seated AOBP DBP change from baseline (CFB), Mean (SD) (25 mg BID, Week 7, Part 1, FAS): −4.87 (8.84) mmHg | Seated AOBP DBP, Mean (SD) (25 mg BID, Week 7, Part 1, FAS): 73.89 (10.76) mmHg | Seated AOBP SBP change from baseline (CFB), Mean (SD) (25 mg BID, Week 7, Part 1, FAS): −11.00 (13.60) mmHg | Seated AOBP SBP, Mean (SD) (25 mg BID, Week 7, Part 1, FAS): 130.74 (15.42) mmHg | LSM Δ from Placebo, change from baseline in seated AOBP SBP (MMRM) (25 mg BID, Week 8, Part 1, FAS): −6.97 mmHg | LSM Δ with Placebo, seated AOBP DBP (MMRM) (25 mg BID, Week 8, Part 1, FAS): −2.49 mmHg | Modelled (MMRM) LSM (SEM) change from baseline, seated AOBP DBP (25 mg BID, Week 8, Part 1, FAS): −4.12 (1.68) mmHg | Modelled (MMRM) LSM (SEM) change from baseline, seated AOBP SBP (25 mg BID, Week 8, Part 1, FAS): −11.07 (2.65) mmHg | Seated AOBP DBP change from baseline (CFB), Mean (SD) (25 mg BID, Week 8, Part 1, FAS): −3.68 (11.71) mmHg | Seated AOBP DBP, Mean (SD) (25 mg BID, Week 8, Part 1, FAS): 75.43 (13.06) mmHg | Seated AOBP SBP change from baseline (CFB), Mean (SD) (25 mg BID, Week 8, Part 1, FAS): −10.13 (14.02) mmHg | Seated AOBP SBP, Mean (SD) (25 mg BID, Week 8, Part 1, FAS): 131.29 (16.59) mmHg | Subjects with seated AOBP SBP/DBP ≤130/80 mmHg: No (25 mg BID, Week 8, Part 1, FAS): 17 (56.7) n (%) | Subjects with seated AOBP SBP/DBP ≤130/80 mmHg: Yes (25 mg BID, Week 8, Part 1, FAS): 13 (43.3) n (%) | Difference from placebo in change in blood pressure (50 mg QD, BMI 25-30): 2.0 | Difference from placebo in change in blood pressure (50 mg QD, BMI >30): −16.6* | Mean placebo-adjusted reduction in AOBP SBP (50 mg QD, Part 1, Week 8): 9.58 mmHg | Placebo-adjusted reduction in AOBP DBP, thiazide diuretic use at baseline (50 mg QD, Part 1, Week 8): −7.7 mmHg | Placebo-adjusted reduction in AOBP SBP from baseline, by baseline AOBP SBP tertile (50 mg QD, Part 1, Week 8): −19.9 mmHg
